Measurements published in ChEMBL document CHEMBL1201862, “PubChem BioAssay data set” (2004).
Calls of active or inactive are those of the source.

Key:
[1] = biological target: T1, Replicative DNA helicase DnaB (Mycobacterium tuberculosis, UniProt P9WMR3); test: DnaB intein splicing inhibitors, dose response, biochemical, cell-free fluorescence (AID 449749); assay type: functional
T1 sequence (P9WMR3 whole entry): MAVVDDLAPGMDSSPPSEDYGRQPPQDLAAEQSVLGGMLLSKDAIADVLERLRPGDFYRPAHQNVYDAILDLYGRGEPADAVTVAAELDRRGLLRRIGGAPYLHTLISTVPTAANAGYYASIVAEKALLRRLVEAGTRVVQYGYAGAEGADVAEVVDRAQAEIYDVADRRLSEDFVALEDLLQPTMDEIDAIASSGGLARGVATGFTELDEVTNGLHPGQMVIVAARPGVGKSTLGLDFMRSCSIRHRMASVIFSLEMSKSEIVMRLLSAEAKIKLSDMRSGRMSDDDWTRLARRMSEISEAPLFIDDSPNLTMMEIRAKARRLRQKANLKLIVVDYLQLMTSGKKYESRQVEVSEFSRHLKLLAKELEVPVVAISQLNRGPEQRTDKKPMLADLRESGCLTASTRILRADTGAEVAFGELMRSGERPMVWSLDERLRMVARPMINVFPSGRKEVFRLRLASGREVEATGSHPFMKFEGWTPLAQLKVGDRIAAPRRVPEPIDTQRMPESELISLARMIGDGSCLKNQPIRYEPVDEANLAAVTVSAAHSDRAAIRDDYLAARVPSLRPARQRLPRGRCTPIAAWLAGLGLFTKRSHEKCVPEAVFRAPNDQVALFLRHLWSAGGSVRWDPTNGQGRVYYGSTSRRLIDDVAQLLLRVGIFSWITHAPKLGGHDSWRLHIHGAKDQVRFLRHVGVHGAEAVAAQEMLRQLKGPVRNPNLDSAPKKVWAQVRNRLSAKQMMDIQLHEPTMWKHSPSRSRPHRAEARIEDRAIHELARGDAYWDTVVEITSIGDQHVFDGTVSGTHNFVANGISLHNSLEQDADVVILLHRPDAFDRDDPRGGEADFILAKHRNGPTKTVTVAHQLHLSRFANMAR

Protein RecA = biological target: T2, Protein RecA (Mycobacterium tuberculosis, UniProt P9WHJ3); test: Fluorescence Cell-Free Homogeneous Dose Retest to Identify Inhibitors of RecA-Intein Splicing Activity. [Related pubchem assays (depositor defined):AID2097, AID2223, AID489010, AID492950]; assay type: functional
T2 sequence (P9WHJ3 whole entry): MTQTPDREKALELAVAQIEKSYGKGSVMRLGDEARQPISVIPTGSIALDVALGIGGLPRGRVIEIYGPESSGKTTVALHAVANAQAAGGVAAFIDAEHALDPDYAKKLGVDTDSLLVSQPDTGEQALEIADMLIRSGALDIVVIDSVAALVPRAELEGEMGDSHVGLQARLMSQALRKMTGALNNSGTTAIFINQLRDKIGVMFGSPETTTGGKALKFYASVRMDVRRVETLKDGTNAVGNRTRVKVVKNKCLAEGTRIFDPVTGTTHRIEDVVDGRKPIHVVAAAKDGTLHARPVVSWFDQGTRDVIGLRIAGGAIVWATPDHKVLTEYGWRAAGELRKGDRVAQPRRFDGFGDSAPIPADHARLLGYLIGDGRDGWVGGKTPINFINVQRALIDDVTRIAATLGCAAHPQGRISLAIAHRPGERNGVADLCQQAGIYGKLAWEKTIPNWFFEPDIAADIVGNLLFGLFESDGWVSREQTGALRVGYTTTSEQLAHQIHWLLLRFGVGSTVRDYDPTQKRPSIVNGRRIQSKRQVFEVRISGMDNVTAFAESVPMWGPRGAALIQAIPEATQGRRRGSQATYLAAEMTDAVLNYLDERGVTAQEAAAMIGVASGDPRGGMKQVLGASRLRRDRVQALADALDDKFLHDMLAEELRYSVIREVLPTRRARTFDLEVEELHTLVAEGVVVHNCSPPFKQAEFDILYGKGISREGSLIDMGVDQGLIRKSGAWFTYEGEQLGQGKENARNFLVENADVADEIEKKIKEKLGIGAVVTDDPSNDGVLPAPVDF

[2] = biological target: DNA (cytosine-5)-methyltransferase 1 (Homo sapiens, UniProt P26358); test: inhibition of DNA methylation by DNMT1 – biochemical, fluorescent molecular beacon, confirmation (AID 602386); assay type: functional
DNA (cytosine-5)-methyltransferase 1, sequence (P26358 whole entry): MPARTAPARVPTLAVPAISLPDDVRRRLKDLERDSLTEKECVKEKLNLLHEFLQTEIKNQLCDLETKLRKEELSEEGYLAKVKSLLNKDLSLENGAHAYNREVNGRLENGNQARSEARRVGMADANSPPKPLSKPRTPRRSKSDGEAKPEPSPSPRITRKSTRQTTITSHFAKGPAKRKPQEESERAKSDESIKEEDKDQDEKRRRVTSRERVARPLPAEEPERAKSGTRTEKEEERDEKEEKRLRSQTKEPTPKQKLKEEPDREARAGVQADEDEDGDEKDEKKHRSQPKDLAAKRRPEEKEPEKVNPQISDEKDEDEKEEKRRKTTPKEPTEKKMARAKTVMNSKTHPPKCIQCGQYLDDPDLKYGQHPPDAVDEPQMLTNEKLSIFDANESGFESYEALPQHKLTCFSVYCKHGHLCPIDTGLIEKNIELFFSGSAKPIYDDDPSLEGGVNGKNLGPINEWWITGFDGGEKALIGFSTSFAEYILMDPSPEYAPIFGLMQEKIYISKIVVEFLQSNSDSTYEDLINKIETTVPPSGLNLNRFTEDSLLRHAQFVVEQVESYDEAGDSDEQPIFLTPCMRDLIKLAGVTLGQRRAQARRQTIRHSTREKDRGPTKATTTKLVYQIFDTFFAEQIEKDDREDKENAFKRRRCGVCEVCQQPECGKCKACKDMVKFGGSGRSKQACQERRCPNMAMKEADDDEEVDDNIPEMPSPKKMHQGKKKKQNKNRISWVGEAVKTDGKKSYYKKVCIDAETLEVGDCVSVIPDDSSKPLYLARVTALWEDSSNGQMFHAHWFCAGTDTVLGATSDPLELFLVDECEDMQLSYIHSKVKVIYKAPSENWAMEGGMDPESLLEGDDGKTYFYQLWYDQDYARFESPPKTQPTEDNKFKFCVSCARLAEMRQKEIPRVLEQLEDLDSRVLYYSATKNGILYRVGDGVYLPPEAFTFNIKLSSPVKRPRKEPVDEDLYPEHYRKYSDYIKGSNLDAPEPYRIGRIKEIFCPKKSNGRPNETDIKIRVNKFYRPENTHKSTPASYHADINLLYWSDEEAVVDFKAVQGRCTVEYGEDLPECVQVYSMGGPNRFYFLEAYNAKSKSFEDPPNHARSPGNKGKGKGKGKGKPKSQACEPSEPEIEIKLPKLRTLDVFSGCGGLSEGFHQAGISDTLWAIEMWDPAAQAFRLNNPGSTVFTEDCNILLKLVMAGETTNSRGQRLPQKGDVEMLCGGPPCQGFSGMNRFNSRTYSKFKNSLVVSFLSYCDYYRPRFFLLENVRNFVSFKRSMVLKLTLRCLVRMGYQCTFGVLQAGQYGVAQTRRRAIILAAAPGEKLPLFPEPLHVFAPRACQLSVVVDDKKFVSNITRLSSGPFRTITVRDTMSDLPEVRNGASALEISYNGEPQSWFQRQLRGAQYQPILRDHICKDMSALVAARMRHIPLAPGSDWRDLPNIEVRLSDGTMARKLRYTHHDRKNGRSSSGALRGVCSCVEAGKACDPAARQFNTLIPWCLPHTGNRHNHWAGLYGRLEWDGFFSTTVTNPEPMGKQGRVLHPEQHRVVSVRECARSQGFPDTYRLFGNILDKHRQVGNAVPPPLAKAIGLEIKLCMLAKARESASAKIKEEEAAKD

Caspase-6 = Caspase-6 (Homo sapiens, UniProt P55212); test: inhibition of CASP6 peptide cleavage – biochemical, VEID-R110 fluorescence, cherry-pick, dose response (AID 720632)
Caspase-6, sequence (P55212 24-179 limits assumed): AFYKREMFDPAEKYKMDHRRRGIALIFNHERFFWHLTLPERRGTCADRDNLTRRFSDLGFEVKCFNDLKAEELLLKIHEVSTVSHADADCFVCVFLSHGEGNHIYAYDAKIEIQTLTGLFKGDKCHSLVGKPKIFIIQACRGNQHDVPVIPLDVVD
Caspase-6, sequence (P55212 194-293 limits assumed): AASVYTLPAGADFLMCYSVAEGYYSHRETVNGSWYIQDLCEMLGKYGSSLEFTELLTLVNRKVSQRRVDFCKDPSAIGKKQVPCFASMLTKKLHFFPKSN

[3] = biological target: Histone-lysine N-methyltransferase NSD2 (Homo sapiens, UniProt O96028); assay type: biochemical
Histone-lysine N-methyltransferase NSD2, sequence (O96028 whole entry): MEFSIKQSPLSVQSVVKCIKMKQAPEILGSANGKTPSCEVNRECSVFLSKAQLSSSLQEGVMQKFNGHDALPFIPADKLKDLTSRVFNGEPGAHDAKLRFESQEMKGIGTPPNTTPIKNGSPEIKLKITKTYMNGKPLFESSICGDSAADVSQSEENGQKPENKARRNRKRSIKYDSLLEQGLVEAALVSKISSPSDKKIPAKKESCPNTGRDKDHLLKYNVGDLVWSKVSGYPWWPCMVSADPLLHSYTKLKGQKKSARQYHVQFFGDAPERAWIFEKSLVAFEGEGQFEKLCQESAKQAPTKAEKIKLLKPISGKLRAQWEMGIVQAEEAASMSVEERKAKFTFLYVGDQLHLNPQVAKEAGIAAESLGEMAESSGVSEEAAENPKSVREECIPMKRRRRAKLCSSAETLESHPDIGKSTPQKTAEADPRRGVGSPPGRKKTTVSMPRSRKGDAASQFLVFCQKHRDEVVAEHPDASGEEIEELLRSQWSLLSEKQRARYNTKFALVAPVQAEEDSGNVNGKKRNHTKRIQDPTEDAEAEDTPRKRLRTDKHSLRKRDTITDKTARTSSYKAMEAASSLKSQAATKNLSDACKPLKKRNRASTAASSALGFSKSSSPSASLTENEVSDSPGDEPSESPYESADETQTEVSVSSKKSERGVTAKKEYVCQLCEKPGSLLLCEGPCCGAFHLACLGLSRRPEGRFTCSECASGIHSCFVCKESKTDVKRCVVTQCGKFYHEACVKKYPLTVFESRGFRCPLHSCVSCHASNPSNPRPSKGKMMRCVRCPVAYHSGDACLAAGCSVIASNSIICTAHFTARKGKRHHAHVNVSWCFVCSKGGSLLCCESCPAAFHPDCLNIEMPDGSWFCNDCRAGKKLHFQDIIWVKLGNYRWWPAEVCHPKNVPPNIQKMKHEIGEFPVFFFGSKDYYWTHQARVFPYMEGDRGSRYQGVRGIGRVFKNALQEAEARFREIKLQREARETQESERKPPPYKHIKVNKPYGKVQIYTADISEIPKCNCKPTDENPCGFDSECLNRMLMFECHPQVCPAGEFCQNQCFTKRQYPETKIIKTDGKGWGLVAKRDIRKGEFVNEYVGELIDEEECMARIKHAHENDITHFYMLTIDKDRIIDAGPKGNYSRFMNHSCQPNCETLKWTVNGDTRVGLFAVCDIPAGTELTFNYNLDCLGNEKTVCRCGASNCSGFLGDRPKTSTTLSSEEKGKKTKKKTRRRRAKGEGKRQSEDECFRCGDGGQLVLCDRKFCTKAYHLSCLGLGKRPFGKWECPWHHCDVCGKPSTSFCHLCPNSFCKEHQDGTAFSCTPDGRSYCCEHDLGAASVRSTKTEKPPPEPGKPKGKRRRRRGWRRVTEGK

Large T antigen = Large T antigen (Simian virus 40, UniProt P03070); assay type: functional, Betapolyomavirus macacae;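 further: Confirmatory-stage PubChem screen for compounds that inhibit SV40 T antigen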
[4] = biological target: Glutathione-S-transferase (Schistosoma japonicum, UniProt Q26513); test: GST-antibody interaction or FRET quenching – biochemical, TR-FRET, artefact control for Vif-APOBEC3G degradation inhibitor project, dose response (AID 1117362); assay type: functional
Glutathione-S-transferase, sequence (Q26513 whole entry): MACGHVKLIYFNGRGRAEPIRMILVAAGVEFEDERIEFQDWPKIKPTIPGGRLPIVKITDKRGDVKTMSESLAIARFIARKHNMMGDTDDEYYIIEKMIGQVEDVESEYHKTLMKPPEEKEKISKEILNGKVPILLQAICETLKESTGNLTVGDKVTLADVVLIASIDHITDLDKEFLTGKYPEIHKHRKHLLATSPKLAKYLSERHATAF

14-3-3 protein gamma = 14-3-3 protein gamma (Homo sapiens, UniProt P61981); test: modulators of 14-3-3 gamma client binding – dose response (AID 711); assay type: functional
14-3-3 protein gamma, sequence (P61981 whole entry): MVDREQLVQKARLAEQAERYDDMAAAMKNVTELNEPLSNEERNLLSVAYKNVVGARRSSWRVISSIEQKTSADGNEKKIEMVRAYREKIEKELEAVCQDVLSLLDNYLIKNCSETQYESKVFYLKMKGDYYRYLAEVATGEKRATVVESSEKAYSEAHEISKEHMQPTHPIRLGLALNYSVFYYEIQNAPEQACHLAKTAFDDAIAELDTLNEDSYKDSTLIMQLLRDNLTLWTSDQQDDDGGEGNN

[5] = HIV-1 Vif–A3G interaction blockers – biochemical, TR-FRET, GST-Vif 1-94, biotin-A3G peptide, dose response retest, primary screen (AID 1117319); assay type: functional;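 further: TR-FRET signal of purified GST-Vif binding a biotinylated A3G peptide; inhibitors lower the FRET signal by blocking Vif and A3G binding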
Ephrin type-A receptor 4 = Ephrin type-A receptor 4 (Mus musculus, UniProt Q03137); test: EphA4 ligand-binding antagonists – biochemical, colorimetric, mouse EphA4, primary screen (AID 689); assay type: functional
Ephrin type-A receptor 4, sequence (Q03137 whole entry): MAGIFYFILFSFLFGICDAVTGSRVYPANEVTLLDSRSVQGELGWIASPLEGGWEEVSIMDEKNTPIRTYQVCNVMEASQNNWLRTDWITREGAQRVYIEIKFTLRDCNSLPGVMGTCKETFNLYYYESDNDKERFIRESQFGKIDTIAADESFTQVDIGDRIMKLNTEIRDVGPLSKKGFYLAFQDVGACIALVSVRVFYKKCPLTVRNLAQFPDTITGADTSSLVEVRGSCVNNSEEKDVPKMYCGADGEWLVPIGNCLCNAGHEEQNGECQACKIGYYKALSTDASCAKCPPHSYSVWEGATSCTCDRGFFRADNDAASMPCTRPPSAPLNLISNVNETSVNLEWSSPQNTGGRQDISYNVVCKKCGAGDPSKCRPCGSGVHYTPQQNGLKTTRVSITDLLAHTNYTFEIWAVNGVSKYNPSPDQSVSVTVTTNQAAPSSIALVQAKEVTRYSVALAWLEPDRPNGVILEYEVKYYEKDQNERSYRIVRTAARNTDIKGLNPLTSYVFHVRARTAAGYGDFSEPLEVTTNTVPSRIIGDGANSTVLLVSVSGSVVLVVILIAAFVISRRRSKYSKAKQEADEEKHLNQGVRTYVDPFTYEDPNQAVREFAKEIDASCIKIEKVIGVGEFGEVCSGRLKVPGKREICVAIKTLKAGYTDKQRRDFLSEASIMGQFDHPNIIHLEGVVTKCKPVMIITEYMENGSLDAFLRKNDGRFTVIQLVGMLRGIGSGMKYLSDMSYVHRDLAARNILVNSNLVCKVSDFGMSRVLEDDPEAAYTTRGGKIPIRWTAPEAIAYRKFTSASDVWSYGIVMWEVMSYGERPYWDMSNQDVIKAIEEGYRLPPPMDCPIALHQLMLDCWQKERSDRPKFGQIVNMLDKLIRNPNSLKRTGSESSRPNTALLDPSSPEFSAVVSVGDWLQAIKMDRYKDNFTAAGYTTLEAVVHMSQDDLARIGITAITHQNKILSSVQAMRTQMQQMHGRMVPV

[6] = biological target: Voltage-dependent T-type calcium channel subunit alpha-1H (Homo sapiens, UniProt O95180); assay type: functional;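 further: channel activity triggered by adding a high calcium stimulation buffer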
[7] = system: Streptococcus sp. 'group A'; test: Streptococcus pyogenes SK(-)GAS viability under kanamycin – luminescence, BacTiterGlo, confirmation, counter-screen for streptokinase expression inhibitor project, dose response (AID 1900); assay type: functional, organism-based
Streptokinase A = biological target: T3, Streptokinase A (Streptococcus pyogenes serotype M1, UniProt P10520); test: viability-normalized secreted streptokinase activity reduction – plasminogen activation absorbance, OD405, dose response (AID 1914); assay type: functional, Streptococcus pyogenes M1 GAS;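 further: secreted streptokinase activity via plasminogen activation per viability signal from cell pellet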
T3 sequence (P10520 whole entry): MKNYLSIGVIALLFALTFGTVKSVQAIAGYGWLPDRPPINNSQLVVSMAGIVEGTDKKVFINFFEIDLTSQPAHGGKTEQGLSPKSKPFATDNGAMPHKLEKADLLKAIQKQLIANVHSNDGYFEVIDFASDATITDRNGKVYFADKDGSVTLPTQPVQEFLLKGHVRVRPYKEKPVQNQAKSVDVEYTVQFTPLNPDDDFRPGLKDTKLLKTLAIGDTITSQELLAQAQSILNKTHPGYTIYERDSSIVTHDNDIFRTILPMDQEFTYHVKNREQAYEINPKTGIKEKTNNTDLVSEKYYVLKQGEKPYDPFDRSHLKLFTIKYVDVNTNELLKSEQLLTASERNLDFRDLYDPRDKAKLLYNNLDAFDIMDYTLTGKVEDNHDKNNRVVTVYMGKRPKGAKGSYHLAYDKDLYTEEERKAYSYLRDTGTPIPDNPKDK

Streptococcus = test: GAS UMAA2166 growth inhibition – luminescence, BacTiterGlo, counter-screen for streptokinase expression inhibitor project, dose response (AID 1915); assay type: functional, organism-based;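 further: potency for reduction of bacterial viability or growth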
[8] = biological target: T4, Endoribonuclease toxin MazF (Escherichia coli K-12, UniProt P0AE70); test: activation of MazEF endoribonuclease cleavage – biochemical, fluorescence, single-stranded RNA substrate, uHTS hits, dose response (AID 588481); assay type: functional
T4 sequence (P0AE70 whole entry): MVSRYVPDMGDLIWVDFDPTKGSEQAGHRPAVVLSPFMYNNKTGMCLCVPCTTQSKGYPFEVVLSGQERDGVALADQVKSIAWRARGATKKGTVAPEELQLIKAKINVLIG

H9c2 = test: cells; assay type: functional, cell-based; conditions: Rattus norvegicus, H9c2, Myocardium;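 further: confirmatory concentration-response retest of ultra-high-throughput screening hits for modulation of myocardial damage; cell death induced by hydrogen peroxide oxidative stress; compound pretreatment for 60 min then peroxide exposure for 2 h; potency is for protecting the cells against peroxide damage rather than for killing them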
[9] = biological target: T4, Endoribonuclease toxin MazF; test: substrate-only fluorescence increase artefacts – biochemical, single-stranded RNase substrate, counter-screen for MazEF activator project, dose response (AID 588502); assay type: functional
Paired box protein Pax-8 = Paired box protein Pax-8 (Homo sapiens, UniProt Q06710); test: PAX8 transcriptional activity inhibition in RMG-I – RMG-I cells, luciferase, cherry-pick, dose response (AID 687027); assay type: functional, cell-based;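 further: luciferase reporter driven by Pax8 target thyroperoxidase promoter measured by SteadyGlo luminescence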
[10] = A2780 cell killing – plate reader, dry powder samples, cytotoxicity control, dose response (AID 743046); assay type: functional, cell-based
[11] = OVCAR-3 cell viability loss – plate reader, dry powder samples, PAX8 inhibitor project, dose response (AID 743044); assay type: functional, cell-based
[12] = OVCAR8 cell viability loss – plate reader, dry powder samples, PAX8 project, dose response (AID 743197); assay type: functional, cell-based; conditions: OVCAR-8
[13] = inhibitors of non-replicating M. tuberculosis, dose response, luciferase, dry powder (AID 651619); assay type: functional
[14] = inhibitors of non-replicating M. tuberculosis, dose response, luciferase, dry powder (AID 651620); assay type: functional
[15] = biological target: NAD-dependent protein deacylase sirtuin-5, mitochondrial (Homo sapiens, UniProt Q9NXA8); test: blockers of sirtuin-5 peptide desuccinylation – biochemical, fluorescence imaging, cherry-pick, set 6, dose response (AID 720597)
NAD-dependent protein deacylase sirtuin-5, mitochondrial, sequence (Q9NXA8 whole entry): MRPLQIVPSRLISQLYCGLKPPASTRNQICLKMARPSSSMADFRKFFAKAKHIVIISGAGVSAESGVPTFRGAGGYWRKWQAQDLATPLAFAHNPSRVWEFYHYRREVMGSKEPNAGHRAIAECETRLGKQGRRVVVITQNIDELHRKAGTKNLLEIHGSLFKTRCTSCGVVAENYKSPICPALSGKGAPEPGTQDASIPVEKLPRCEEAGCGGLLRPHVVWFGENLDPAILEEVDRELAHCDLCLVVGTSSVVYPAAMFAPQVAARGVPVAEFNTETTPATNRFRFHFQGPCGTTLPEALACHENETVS

[16] = CellTiter-Glo luminescence survival assay, SW480 colon tumor line, concentration-response curve, half-maximal inhibitory concentration (AID 1117338); assay type: functional
[17] = RKO cell viability reduction, dose response, CellTiter-Glo luminescence (AID 1117322); assay type: functional
[18] = cytotoxicity toward HCT116 cells – cell-based, CellTiter-Glo luminescence, IC50, dose response (AID 1117332); assay type: functional; conditions: HCT-116
[19] = SNU-C1 cell viability reduction, dose response, CellTiter-Glo luminescence (AID 1117323); assay type: functional, cell-based
[20] = cytotoxicity toward Colo320 cells – cell-based, CellTiter-Glo luminescence, IC50, dose response (AID 1117334); assay type: functional; conditions: COLO 320
[21] = cytotoxicity toward HT-29 cells – cell-based, CellTiter-Glo luminescence, IC50, dose response (AID 1117330); assay type: functional
[22] = Reduced DLD-1 viability, concentration-response, CellTiter-Glo luminescence (AID 1117352); assay type: functional
[23] = HCT116 cell viability decrease, GSK3B pretreatment – CellTiter-Glo, IC50, dose response (AID 1117339); assay type: functional; conditions: HCT-116

NS(=O)(=O)c1ccc(N=Nc2ccc(O)nc2O)cc1
AC50 [1]: 53.2 µM (active) | EC50 (Protein RecA): 4.4 µM (active) | IC50 [2]: 7.65 µM (active) | AC50 (Caspase-6): 2.07 µM (active) | AC50 [3]: > 20 µM (inactive)

Nc1ccc(-c2nc3cc(N)ccc3n2CCO)cc1
IC50 (Large T antigen): 41.7 µM (active) | IC50 [4]: > 100 µM (active)

CN(C)S(=O)(=O)CC12CCC(CC1=O)C2(C)C (stereo unspecified)
IC50 (14-3-3 protein gamma): > 50 µM (not active)

CCN(CC)C(=O)c1ccc(CS(=O)(=O)c2ccc(OC)cc2)o1
IC50 [5]: > 100 µM (active)

COc1ccc(C(c2nnnn2Cc2cccs2)N2CCN(c3ccccc3F)CC2)cc1 (stereo unspecified)
IC50 (Ephrin type-A receptor 4): > 100 µM (not active) | EC50 [6]: 18 µM (active)

C=CCn1c(C)cc(-c2csc(N)n2)c1C
IC50 [4]: 28.2 µM (active)

CC(C(=O)N1CCOCC1)(c1ccccc1)c1ccccc1
IC50 [5]: > 100 µM (active)

CCn1c(O)c(/C=N/N=C/c2ccccc2)c2ccc(C3=NNC(=O)CC3)cc21
EC50 [7]: 6.42 µM (active) | EC50 (Streptokinase A): > 150 µM (not active) | IC50 (Ephrin type-A receptor 4): > 100 µM (not active) | EC50 (Streptococcus): 10.5 µM (active) | EC50 [8]: > 99 µM (inactive) | IC50 (H9c2): > 79 µM (inactive) | EC50 [9]: > 99 µM (inactive)

C[C@H]1CN([C@@H](C)CO)C(=O)Cc2cc(NC(=O)C3CC3)ccc2O[C@@H]1CN(C)Cc1ccc(-c2ccccc2)cc1
AC50 (Paired box protein Pax-8): 6.35 µM (active) | AC50 [10]: 21.9 µM (active) | AC50 [11]: 38 µM (active) | AC50 [12]: > 70 µM (inactive)

Clc1ccc(-c2nnc(SCc3cn(Cc4ccccc4)nn3)o2)cc1
IC90 [13]: 1 µM (active) | IC90 ([13]; Mycobacterium tuberculosis): 2 µM (active) | IC90 [14]: 1 µM (active) | IC90 ([14]; Mycobacterium tuberculosis): 2 µM (active)

C[C@H](CO)N1C[C@H](C)[C@@H](CN(C)C)Oc2ccc(NC(=O)Nc3ccc(F)cc3)cc2CC1=O
AC50 [15]: > 30 µM (inactive)

CC(C)CC#Cc1ccc([C@@H]2[C@@H](CO)N3C(=O)CN(C(=O)c4ccccn4)C[C@H]23)cc1
AC50 [15]: 19.7 µM (active)

CCOC(=O)C=C(C)C=CC[C@@H](C)CCCC(C)C
IC50 [16]: > 20 µM (inactive) | IC50 [17]: > 20 µM (inactive) | IC50 [18]: > 20 µM (inactive) | IC50 [19]: > 20 µM (inactive) | IC50 [20]: > 20 µM (inactive) | IC50 [21]: > 20 µM (inactive) | IC50 [22]: > 20 µM (inactive) | IC50 [23]: > 20 µM (inactive)

O=[N+]([O-])c1cccc(S(=O)(=O)NCCNS(=O)(=O)c2cccc([N+](=O)[O-])c2)c1 [DINSED]
IC50 [16]: > 20 µM (inactive) | IC50 [17]: > 20 µM (inactive) | IC50 [18]: > 20 µM (inactive) | IC50 [19]: > 20 µM (inactive) | IC50 [20]: > 20 µM (inactive) | IC50 [21]: > 20 µM (inactive) | IC50 [22]: > 20 µM (inactive) | IC50 [23]: > 20 µM (inactive)
